Reference: patent publication US20040235798A1, “Compositions and methods for inhibiting prenyltransferases” (priority 2001, published 2004)

Key:
C. albicans GGPTase = C. albicans GGPTase (Candida albicans, UniProt Q8J224+Q9Y764); test: Assay protocol for determining IC50 of fungal GGPTase inhibitors (3H-GGPP, FlashPlate); format: biochemical; settings: 2 nM C. albicans GGPTase, 250 nM 3H-GGPP, 250 nM C. albicans Rho; read-out: CaGGTase
Description: (i) Assay Protocol for Determining IC50
Plate test compounds (10 μL per well) at predetermined concentration in 50% DMSO. For background control (blank) and reaction control (negative), add 10 μL of 200 μM GGPP and 10 μL 50% DMSO, respectively. Prepare assay buffer: 50 mM Tris, pH7.5, 20 mM KCL, 5 mM MgCl2, 5 μM ZnCl2, 0.5 mM Zw(3-14), 2 mM DTT and 0.1 mg/mL BSA.
Add 20 μL of C. albicans GGPTase and ^3H-GGPP in assay buffer to test compound. Preincubate enzyme and ^3H-GGPP with test compound for 15 minutes at room temperature. Add 20 μL C. albicans Rho in assay buffer. Incubate for 30 minutes at room temperature. Final assay conditions are 2 nM C. albicans GGPTase, 250 nM ^3H-GGPP and 250 nM C. albicans Rho.
Add 100 μL 15 mM GGPP, 50 mM Tris, pH 7.0 and 2% BSA to quench reaction. Transfer reaction to Nickel chelate FlashPlate. Allow his-tagged C. albcians Rho to capture onto plate. Rinse plate 1× with 200 μL 20 mM Tris, pH 7.0. Read in TOPCOUNT.

C. albicans [1] = test: Determination of minimum fungicidal concentrations (MFC); format: cell-based; settings: concentration where no cellular growth is observed on the plate after plating out MIC wells; for MFC: Candida albicans, read-out: C. alb MFC
Description: (iii) Determination of Minimum Fungicidal Concentrations (MFC) After the required time course for the MIC determination, the minimum fungicidal concentration can then be determined by plating out the entire contents of the well of the microtitre plates onto YPD or Sabourand plates. These plates are then incubated at 35° C. for 24-48 hrs. The MFC corresponds to the concentration of compound where no cellular growth is observed on the plate.

C. albicans [2] = test: In vitro susceptibility testing of compounds in C. albicans (MIC); format: cell-based; settings: concentration where no visible growth is observed, 35° C., read at 24 hr and 48 hr; for MIC: Candida albicans, read-out: C. alb MIC
Description: (ii) In vitro Susceptibility Testing of Compounds in C. albicans […] Innoculate strain C. albicans strain such as SC5314 into 20 mL of the appropriate medium and incubate at 35° C. with shaking (220 rpm) overnight 2: Count the C. albicans cells in a 1:10 dilution of the overnight culture using a haemocytometer. 3: Work out the dilution factor required to bring the cell number to 1×10^3 cells/100 μL (equivalent to 1×10^4 cells/mL) then add the required volume of the overnight culture to 25 mL media in a falcon tube. 4: Vortex the diluted cells and immediately pipette 100 μL of the cell suspension to each of the required rows of a 96 well plate using the multipipettor 5: Prepare each of the 100× stock solutions for the compounds to be tested in DMSO in the required concentration range in Eppendorf tubes. 6: The dilution series for each of the compounds may now be prepared in sequence: For each compound—start with highest dilution. Add 10 μL compound in DMSO to the 490 μL of appropriate media. Immediately vortex and add 100 μL to the appropriate row of cells on the 96-well plate. Repeat this process for the next and subsequent concentrations of this compound before starting on the dilution series for additional compounds. 7: When complete cover the 96-well plate with an acetate sheet and incubate at 35° C. Inspect visually and record results for both plates at 24 hr and 48 hr. The MIC corresponds to the concentration of compound where no visible growth is observed.

CAK1 = CAK1 (Candida albicans, UniProt A0A1D8PH53); test: CAK1 inhibition, time-resolved fluorescence (FRET) kinase assay with biotin-his-cdk2 substrate; format: biochemical; settings: 10 nM his-CAK1, 20 μM ATP, 30 min room temperature
Description: The following protocol was used for measuring CAK1 inhibition by test compounds:
A compound plate was pre-made with 20 μg/ml compound dissolved in 100% DMSO in each well of a 384-well plate (polypropylene, Coming cat # 29445-136), except for two control columns, wherein each well contained 100% DMSO.
A substrate plate was prepared by adding a pre-determined volume of substrate solution (925 nM biotin-his-cdk2 in reaction buffer) into each well of a 96-well deep-well plate (Beckman cat. 267006). To the control wells of the plate, 1/20 vol. of positive control and blank solutions were added according to the plate map. Positive control solutions are Olomoucine (MTX-277859) at 0.25, 0.75, 2.25, 6.75 mM, respectively, in DMSO, and blank solution is 50 mM EDTA in reaction buffer (50 mM Tris-HCl (pH 7.5), 50 mM NaCl, 0.1 mg/mL BSA, 100 μM MgCl2).
The reaction plate (384-well polystyrene black, Packard Opti plate, Cat.# 6005256) was loaded with a volume of 2.0 μL of samples from the compound plate and 8.0 μL of substrate solution from the substrate plate. 10 μl of enzyme solution (10 nM his-CAK1, 20 μM ATP in reaction buffer) was added to start the reaction. The plate was covered with a lid and incubated at room temperature for 30 min.
10 μl of FRET solution (45 nM streptavidin-APC*, 30 nM Europium-Ab, 3 mM EDTA in reaction buffer) was added to each of the wells of the reaction plate to stop the reaction. The time-resolved fluorescence was measured on a Wallac Victor fluorometer (excitation 340 nm, emission 665 nm, delay time 100 μs, window time 100 μs).

[3] = biological target: T1, fungal N-myristoyltransferase (Candida albicans, UniProt P30418); settings: cited from earlier work
T1 sequence (P30418 1-451): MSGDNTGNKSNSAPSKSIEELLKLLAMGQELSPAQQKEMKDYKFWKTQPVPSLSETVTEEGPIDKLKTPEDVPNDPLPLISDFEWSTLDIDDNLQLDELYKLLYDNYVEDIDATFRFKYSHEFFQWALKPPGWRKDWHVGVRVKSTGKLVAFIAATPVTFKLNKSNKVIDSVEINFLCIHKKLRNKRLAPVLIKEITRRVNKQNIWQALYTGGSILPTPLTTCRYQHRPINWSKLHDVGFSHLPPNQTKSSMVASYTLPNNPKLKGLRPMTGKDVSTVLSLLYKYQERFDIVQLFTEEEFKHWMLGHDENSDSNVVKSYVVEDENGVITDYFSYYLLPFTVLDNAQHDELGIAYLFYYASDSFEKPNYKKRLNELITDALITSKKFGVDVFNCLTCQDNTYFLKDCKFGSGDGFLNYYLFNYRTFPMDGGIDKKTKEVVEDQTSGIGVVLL

Chain of CAK1 (A0A1D8PH53 entry or part of it): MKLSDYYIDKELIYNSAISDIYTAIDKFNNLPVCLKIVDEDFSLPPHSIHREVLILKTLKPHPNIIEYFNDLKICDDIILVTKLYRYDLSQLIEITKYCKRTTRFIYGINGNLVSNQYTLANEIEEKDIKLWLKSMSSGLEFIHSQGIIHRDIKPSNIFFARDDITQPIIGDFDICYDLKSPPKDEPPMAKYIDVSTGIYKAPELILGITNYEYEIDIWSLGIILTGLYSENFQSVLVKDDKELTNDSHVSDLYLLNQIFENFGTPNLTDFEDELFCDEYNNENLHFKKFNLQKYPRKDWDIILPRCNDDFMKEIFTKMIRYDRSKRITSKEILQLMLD
Chain of C. albicans GGPTase (Q9Y764 entry or part of it): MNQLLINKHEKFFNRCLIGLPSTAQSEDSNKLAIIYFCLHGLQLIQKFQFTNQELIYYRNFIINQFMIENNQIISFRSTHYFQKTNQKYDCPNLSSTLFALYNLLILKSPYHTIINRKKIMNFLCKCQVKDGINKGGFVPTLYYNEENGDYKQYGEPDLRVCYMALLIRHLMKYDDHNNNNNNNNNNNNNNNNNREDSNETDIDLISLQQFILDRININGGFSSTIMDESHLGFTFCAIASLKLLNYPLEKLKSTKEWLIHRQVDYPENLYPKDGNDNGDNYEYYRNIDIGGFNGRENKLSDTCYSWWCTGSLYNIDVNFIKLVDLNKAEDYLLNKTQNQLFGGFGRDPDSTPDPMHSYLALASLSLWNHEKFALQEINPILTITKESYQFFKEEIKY
Chain of C. albicans GGPTase (Q8J224 entry or part of it): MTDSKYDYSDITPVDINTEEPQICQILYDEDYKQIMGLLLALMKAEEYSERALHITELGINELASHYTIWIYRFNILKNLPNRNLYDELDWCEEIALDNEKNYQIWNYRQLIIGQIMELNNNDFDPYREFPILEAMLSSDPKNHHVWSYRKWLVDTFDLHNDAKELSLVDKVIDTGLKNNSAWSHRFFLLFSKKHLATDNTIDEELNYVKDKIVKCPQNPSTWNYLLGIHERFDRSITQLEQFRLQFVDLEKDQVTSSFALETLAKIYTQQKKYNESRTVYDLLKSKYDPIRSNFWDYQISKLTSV

Row | Structure (SMILES) | IC50 (C. albicans GGPTase) [nM] | MFC (C. albicans [1]) [µg/mL] | MIC (C. albicans [2]) [µg/mL] | IC50 (CAK1) [nM] | further results
1 | Cn1cncc1CN(CC(=O)NC[C@@H]1CO[C@@](Cn2ccnc2)(c2ccc(Cl)cc2Cl)O1)C1CCN(C(=O)N(Cc2cccc(Cl)c2)Cc2cccc(Cl)c2)CC1 [Compound 4] | < 100 | < 10 | < 10 | – | –
2 | Cn1cncc1CN1CCN(C(=O)N(Cc2cccc(Cl)c2)Cc2cccc(Cl)c2)C[C@@H]1CNC1CO[C@@](Cn2cncn2)(c2ccc(Cl)cc2Cl)O1 (stereo partly shown) [Compound 9] | – | – | – | – | C. alb MFC (C. albicans [1]): <10 µg/mL; C. alb MIC (C. albicans [2]): <10 µg/mL
3 | O=C(CSc1ccccn1)c1ccc(OCc2ccc([N+](=O)O)cc2)cc1 [Compound 102] | – | – | – | < 10000 | –
4 | Cn1cncc1CN1CCN(C(=O)N(Cc2cccc(Cl)c2)Cc2cccc(Cl)c2)C[C@@H]1C(=O)NC[C@@H]1CO[C@@](Cn2cncn2)(c2ccc(Cl)cc2Cl)O1 [Compound 10] | < 100 | < 10 | < 10 | – | –
5 | Cn1cncc1CN1CCN(C(=O)N(Cc2cccc(Cl)c2)Cc2cccc(Cl)c2)CC1C(=O)NC[C@H]1CO[C@](Cn2ccnc2)(c2ccc(Cl)cc2Cl)O1 (stereo partly shown) [Compound 1] | < 100 | < 10 | < 10 | – | –
6 | CCOC(=O)C1=C(C)N(Cc2ccccc2)C(=O)NC1c1ccc(OC(F)(F)F)cc1 (stereo not shown) [Compound 106] | – | – | – | < 50000 | –
7 | CCOC(=O)c1c(NC(=O)c2c(OC)cccc2OC)sc(C)c1C [Compound 103] | – | – | – | < 50000 | –
8 | Cn1cncc1CN1CCN(C(=O)N(Cc2cccc(Cl)c2)Cc2cccc(Cl)c2)C[C@@H]1C(=O)NC[C@@H]1CO[C@@](Cn2ccnc2)(c2ccc(Cl)cc2Cl)O1 [Compound 13] | < 100 | < 10 | < 10 | – | –
9 | Cc1onc(-c2c(Cl)cccc2Cl)c1C(=O)Nc1cccc(-c2ncon2)c1 [Compound 101] | – | – | – | < 50000 | –
10 | CN(C)C(=O)c1ccc2nc(NC(=O)[C@H]3CC[C@@H](CN)CC3)sc2c1 | – | – | – | – | inhibitor of fungal N-myristoyltransferase [3]: potent inhibitor
11 | Cn1cncc1CN1CCN(C(=O)N(Cc2cccc(Cl)c2)Cc2cccc(Cl)c2)C[C@@H]1CNC1CO[C@@](Cn2cncn2)(c2ccc(Cl)cc2Cl)O1 (stereo partly shown) [Compound 8] | < 100 | < 10 | < 10 | – | –
12 | O=C1CCc2cc(C(=O)CSc3ccc(Cl)cc3Cl)ccc2N1 [Compound 105] | – | – | – | < 50000 | –
13 | C[C@H](NC(=O)C1CN(C(=O)N(Cc2cccc(Cl)c2)Cc2cccc(Cl)c2)CCN1Cc1cncn1C)[C@](O)(Cn1cncn1)c1ccc(F)cc1F (stereo partly shown) [Compound 2] | < 100 | < 10 | < 10 | – | –
14 | Cn1cncc1CN(C[C@@H]1CO[C@@](Cn2ccnc2)(c2ccc(Cl)cc2Cl)O1)C1CCN(C(=O)N(Cc2cccc(Cl)c2)Cc2cccc(Cl)c2)CC1 [Compound 5] | < 100 | < 10 | < 10 | – | –
15 | O=C(c1cc(C(O)(Cn2ccnc2)c2ccccc2)ccc1-c1ccccc1)N(Cc1ccccc1)Cc1ccccc1 (stereo not shown) [Compound 108] | – | – | – | < 50000 | –
16 | O=C(c1ccccc1OCC1COC(Cn2ccnc2)(c2ccc(Cl)cc2Cl)O1)N(Cc1ccccc1)Cc1ccccc1 (stereo not shown) [Compound 107] | – | – | – | < 10000 | –
17 | CCOC(=O)c1c(NC(=O)c2c(OC)cccc2OC)sc2c1CCC(C)C2 (stereo not shown) [Compound 104] | – | – | – | > 50000 | –
18 | Cn1cncc1CN1CCN(C(=O)N(Cc2cccc(Cl)c2)Cc2cccc(Cl)c2)C[C@H]1C(=O)NC[C@@H]1CO[C@@](Cn2ccnc2)(c2ccc(Cl)cc2Cl)O1 [Compound 14] | < 100 | < 10 | < 10 | – | –
19 | Cn1cncc1CN1CCN(C(=O)N(Cc2cccc(Cl)c2)Cc2cccc(Cl)c2)C[C@@H]1C(=O)NC[C@H]1CO[C@](Cn2ccnc2)(c2ccc(Cl)cc2Cl)O1 [Compound 12] | – | – | – | – | C. alb MFC (C. albicans [1]): <10 µg/mL; C. alb MIC (C. albicans [2]): <10 µg/mL
20 | C[C@@H](c1nc(CN(Cc2cncn2C)[C@H]2CCN(C(=O)N(Cc3cccc(Cl)c3)Cc3cccc(Cl)c3)C2)cs1)[C@@](O)(c1ccc(F)cc1F)n1cncn1 [Compound 16] | < 100 | < 10 | < 10 | – | –
21 | C[C@@H](c1nc([C@H]2CN(C(=O)N(Cc3cccc(Cl)c3)Cc3cccc(Cl)c3)CCN2Cc2cncn2C)cs1)[C@@](O)(c1ccc(F)cc1F)n1cncn1 [Compound 15] | < 100 | < 10 | < 10 | – | –
22 | Cn1cncc1CN1CCN(C(=O)N(Cc2cccc(Cl)c2)Cc2cccc(Cl)c2)C[C@@H]1C(=O)NC[C@H]1CO[C@](Cn2ccnc2)(c2ccc(Cl)cc2Cl)O1 [Compound 11] | < 100 | < 10 | < 10 | – | –
